Source: patent US9844521B2, “Pharmaceutical composition comprising ginger extract or shogaol” (UNIVERSITY-INDUSTRY COOPERATION GROUP OF KYUNG HEE …, priority 2008, dated 2017)

Columns and labels:
[1] = system: C57BL/6 mouse having MPTP-induced Parkinson's disease; assay: Dopamine cell protective activity in striatum and substantia nigra (TH immunohistochemistry), MPTP model; format: in vivo; conditions: 10 mg/kg oral once per day for 5 days, MPTP 30 mg/kg i.p., p<0.05 vs MPTP group
Experimental: Mice were divided into three groups, each of which consisted of 6 mice. A first group (control) and a second group (MPTP group) were orally administered once per day with 10% dimethyl sulfoxide in an amount of 5 ml per mouse weight kg for 5 days, and a third group (shogaol-administered group) was orally administered once per day with 10 mg/kg of shogaol dissolved in 10% dimethyl sulfoxide for 5 days. 2 hours after the oral administration, the first group (control) was intraperitoneally administered with saline in an amount of 5 ml per mouse weight kg for 5 days, and the second and third groups were intraperitoneally administered with 30 mg/kg of MPTP dissolved in saline for 5 days.
The mice of the respective groups were sacrificed after the pole test was completely performed, and brain tissues (striatum and substantia nigra) were isolated. […]
The mice of the respective groups were sacrificed after the pole test was completely performed, and brain tissues (striatum and substantia nigra) were isolated. Protection activity was evaluated using the isolated brain tissues in the same manner as in (1-2) above, and the results are shown in FIGS. 14 and 15. […]

[2] = system: 2-vessel occlusion cerebral ischemia model; assay: 2-vessel occlusion cerebral ischemia model, neurons in CA1 of hippocampus; format: in vivo, mouse; conditions: 10 mg/kg in 10% tween 80, immediately after 2VO then once per day for 3 days
Experimental: 7-week old C57BL/6 based male mice (19-22 g) were obtained and nurtured in an animal laboratory at Kyunghee University Graduate School of East-West Medicine Science for one week or more for adaptation. Water and feed were freely supplied, and the temperature (22±2[…]), humidity (53±3%), and a cycle of brightness and darkness (12 hours) were automatically controlled.
Mice were divided into three groups, each of which consisted of 10 mice. Anesthesia was induced in an anesthetic gas (O2: 30%, N2O: 70%, and isoflurane: 2.0%) chamber, and mice of the respective groups were located on an operating table with their backs on the operating table. The skin of each mouse was cut upward by about 1.5 cm from a point where the upper limbs and an intermediate line meet, and then, facing common carotid arteries were exposed without damage of tissues. Tissues and nerves attached to the carotid arteries were dissociated and occlusion was performed thereon by using an aneurism clip for 25 minutes. In this regard, the temperature of the mice was measured by using a rectal thermometer and maintained at 37±0.5 □.
A sham control refers to a group obtained as described above except for the occlusion of the common carotid arteries. Medicine administration was performed immediately after a 2VO step, and thereafter, performed once per day for 3 days. […]

CCCCC/C=C/C(=O)CCc1ccc(O)c(OC)c1 [shogaol, (E)-1-(4-hydroxy-3-methoxyphenyl)dec-4-en-3-one] was tested, and the “number of TH positive cells in substantia nigra” value ([1]; of a control) was 70.30±4.86, the “optical density of striatum (TH immunoreactivity)” value [1] was 80.11±1.97 % of a control and the “neuron apoptosis suppression efficacy in CA1” value [2] was 29.5±15.4 % of the 2VO step group.
